# Reference: patent publication US12492367B2, “Sensor chip capable of culturing cells and of analyzing cell-derived substance, and cell activity quantitative analysis method using the same” (AJOU UNIVERSITY INDUSTRY-ACADEMIC COOPERATION FOUNDATION, priority 2020, dated 2025)
# How the values were obtained:
# RAW 264.7 cells [1] = test: Observation of cell shape change of RAW 264.7 cells after PMA treatment in the sensor chip; type: cell-based, murine; settings: 16 μM PMA added to culturing liquid; RAW 264.7 cells adhered after 24 hours culture; FIGS. 4-1 and 4-2
# Description: (§1) After introducing the sensor chip into an autoclave, the sensor chip was autoclaved at a temperature of 120° C. for […]. Thereafter, RAW 264.7 cells as a murine macrophage cell line were inoculated into a cell culturing compartment containing the culturing liquid of the sterilized sensor chip, and then were cultured for 24 hours to adhere the cells to a surface of the culturing compartment. In this regard, Dulbecco's modified eagle medium (DMEM), 10% fetal bovine serum, and 5% penicillin streptomycin were added to the culturing liquid, and then culturing of the cells was carried out at 37° C., and under a 5% CO2 concentration condition.
# (§2) After identifying that the cells were adhered to the surface of the culturing compartment, 16 μM of PMA was added to the culturing liquid to chemically activate the cells, and change in the cell shape was observed (FIGS. 4-1 and 4-2). In this regard, PMA used as the chemical stimulant acts as a strong tumor promoter and is a chemical that induces cell growth, differentiation, and immune response when the PMA is added to the culturing liquid. When the external stimulating substance such as the PMA is added to the culturing liquid, the immune cells recognize the external stimulating substance as an external stimulus such that the activation of the cells is induced.
# RAW 264.7 cells [2] = test: Cyclic voltammetry measurement of hydrogen peroxide secreted into the cell culturing liquid after PMA treatment (HRP carbon paste work electrode); type: cell-based, murine; settings: 16 μM PMA; CV 0 V to −1 V, reduction current at −400 mV; calibration curve; FIG. 4-6
# Description: as §1
# as §2, with “When the external stimulating substance such as the PMA is added to the culturing liquid, the immune cells recognize the external stimulating substance as an external stimulus such that the activation of the cells is induced.” left out
# For this purpose, a calibration curve (FIG. 4-5) was obtained based on the CV results measured while hydrogen peroxide having varying concentrations was added to the cell culturing liquid. […]
structure (smiles),measurement,setting,value
"CCCCCCCCCCCCCC(=O)O[C@@H]1[C@@H](C)[C@@]2(O)[C@@H](C=C(CO)C[C@]3(O)C(=O)C(C)=C[C@@H]23)[C@@H]2C(C)(C)[C@]12OC(C)=O [PMA, phorbol 12-myristate 13-acetate]",change in the cell shape after the PMA treatment,RAW 264.7 cells [1],cell shape changed into an atypical shape
same,concentration of hydrogen peroxide secreted from the cells over time after the PMA treatment,RAW 264.7 cells [2],concentration of hydrogen peroxide secreted from the cells also increases
